Laboratory results published in patent US9067974B2, “Polymyxin derivatives and uses thereof” (priority 2006, dated 2015).
Where two headings read alike, the source gives them in different places.

Experiments:
[1] = tested on: Ac. baumannii ATCC19606; assay: E-test MIC of antibiotics on Mueller-Hinton agar with or without NAB7061 (4 μg/ml); sensitization factor = MIC ratio absence/presence; format: cell-based; conditions: Acinetobacter baumannii, NAB 7061 0 μg/ml, A. baumannii ATCC19606
Method: (§1) MICs were determined by using E-strips (Biodisk Ltd., Solna, Sweden) according to the manufacturer's instructions.
(§2) The strains originated from ATCC (11 strains), CCUG (11 strains), and NCTC (The National Collection of Type Cultures, Colindale, U.K.; 2 strains). Eight strains (the F-strains) were purchased from Mobidiag Ltd., Helsinki, Finland. The source of E. coli IH3080 has been given in Example 2. Sensitization factor was defined as in Example 7.
(§3) Sensitization factor was defined as in Example 7. NAB7061 sensitized both carbapenem-resistant strains (F263, F264) to both carbapenems by a factor ≧4.

[2] = tested on: Ac. baumannii F264; assay: as above; format: cell-based; conditions: Acinetobacter baumannii, NAB 7061 0 μg/ml, A. baumannii F264
Method: as §1, §2, §3

[3] = tested on: Ac. baumannii F263; assay: as above; format: cell-based; conditions: Acinetobacter baumannii, NAB 7061 0 μg/ml, A. baumannii F263
Method: as §1, §2, §3

[4] = tested on: Pseudomonas aeruginosa ATCC 27853; assay: Well diffusion growth inhibition on LB agar plates (direct antibacterial activity); format: cell-based; conditions: Ps. aeruginosa ATCC 27853
Method in brief: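 Pseudomonas aeruginosa ATCC 27853 was tested for direct antibacterial susceptibility by agar well diffusion. A suspension of about 10^8 cells/ml in 0.9% NaCl was spread over LB agar and the excess removed. After drying, 2 mm wells were drilled and filled with compound dissolved in 0.9% NaCl, with NaCl alone as control. Plates were incubated 18 h at 37° C, and inhibition zone diameters were measured and converted to areas in square mm.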

[5] = tested on: Acinetobacter baumannii ATCC 19606; assay: as above; format: cell-based; conditions: A. baumannii ATCC 19606
Method in brief: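 Direct antibacterial activity against Acinetobacter baumannii ATCC 19606 was measured by agar well diffusion on LB plates. The plates were flooded with a suspension of approx. 10^8 cells/ml in 0.9% NaCl, and the excess was removed. Once the surface dried, five wells of 2 mm diameter were drilled per plate. The wells were filled with test compound dissolved in 0.9% NaCl, with plain 0.9% NaCl as control. After 18 h at 37° C., inhibition zone diameters were measured and converted to growth inhibition areas in square mm.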

[6] = tested on: E. coli IH3080 (K1:O18); assay: as above; format: cell-based, Escherichia coli
Method in brief: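 Growth inhibition of encapsulated E. coli IH3080 (K1:O18) was measured by well diffusion on LB agar plates. A suspension of about 10^8 cells/ml in 0.9% NaCl, made from an overnight LB agar culture, was spread over the plates and the excess removed. Once dry, five 2 mm wells were drilled per plate and test solutions added, with 0.9% NaCl as control. After 18 h at 37° C, inhibition zone diameters were measured and converted to surface areas in square mm.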

[7] = target: brush-border membrane (BBM) from the renal cortex; assay: Inhibition of [3H] gentamycin binding to brush-border membrane vesicles; design: species or system rats; conditions: 20 μM [3H] gentamycin; 60 min at 4° C.; rat renal cortex BBM vesicles
Description: The binding of the compounds according to this invention to isolated brush-border membrane (BBM) from the renal cortex can be measured indirectly by measuring their ability to inhibit the binding of radiolabelled gentamycin to BBM. Accordingly, the compounds according to this invention that have less affinity to BBM than for example polymyxin B inhibit the binding of radiolabelled gentamycin to a lesser degree than does polymyxin B.
BBM was isolated from the renal cortex of male albino rats by using the Mg^2+/EGTA precipitation technique as described by Nagai et al. (2006). The binding of gentamycin was measured, according to the method described by Nagai et al. (2006) by incubating BBM vesicles (20 μl) in 10 mM HEPES (pH 7.5) with 100 mM mannitol in the presence of 20 μM [^3H] gentamycin (Amersham Biosciences Inc., Buckinghamshire, U.K.) with or without the compound to be tested or a positive control. After an incubation of 60 min at 4° C., 1 ml of ice-cold buffer described above was added, and the mixture was filtered through a Millipore filter (0.45 μm; HAWP). The filter was washed with the buffer and the radioactivity remaining in the filter was measured by using a liquid scintillation counter. The IC50 values were determined as in Nagai et al. (2006) using the Hill equation.

[8] = tested on: E. coli IH3080; assay: Sensitization to rifampin: well diffusion growth inhibition on LB plates containing rifampin; format: cell-based, Escherichia coli; conditions: 4 μg of compound
[9] = Two-week intravenous toxicity study in young rats; format: in vivo
Method: Toxicity in young rats (weighing approx. 150 g in the beginning of the study) was determined by administering doses (1, 2, 4, 8, 16, and 32 mg/kg per day) of NAB7061 as well as the control compound polymyxin B intravenously twice (2) a day for two weeks. A group of ten (10) rats was studied for each dosis regimen. Clinical observations were made daily, the body weight measured twice weekly, and the food consumption twice weekly. In the end of week 2, all animals were sacrificed.
Histopathology of kidneys was performed for each animals and histopathology of all tissues was performed in three high-dose groups receiving NAB7061.

[10] = tested on: E. coli; conditions: Sakura et al. 2004; cited from earlier work

Compound: C[C@@H](O)[C@H]1C(=O)N2C(C(=O)O)=C(SCCN=CN)C[C@H]12 [imipenem, reference compound]
- MIC ([1]; read-out: MIC of imipenem): 0.38 µg/mL
- MIC ([2]; read-out: MIC of imipenem): 24 µg/mL
- MIC ([3]; read-out: MIC of imipenem): > 32 µg/mL

Compound: C[C@@H](O)[C@H]1C(=O)N2C(C(=O)O)=C(S[C@@H]3CN[C@H](C(=O)N(C)C)C3)[C@H](C)[C@H]12 [meropenem, reference compound]
- MIC ([1]; read-out: MIC of meropenem): 1.5 µg/mL
- MIC ([2]; read-out: MIC of meropenem): 32 µg/mL
- MIC ([3]; read-out: MIC of meropenem): > 32 µg/mL

Compound: MO(H)A-XTX-cy[XXFLXXT], SEQ ID NO:1; commercially available polymyxin B is a mixture [reference compound]
- Antibacterial activity (growth inhibition area around a well) ([4]; 4 μg per well): 95 square millimeters
- Antibacterial activity (growth inhibition area around a well) ([4]; 10 μg per well): 133 square millimeters
- Antibacterial activity (growth inhibition area around a well) ([5]; 4 μg per well): 113 square millimeters
- Antibacterial activity (growth inhibition area around a well) ([5]; 10 μg per well): 154 square millimeters
- Antibacterial activity (growth inhibition area around a well) ([6]; 4 μg of compound per well): 79 square millimeters
- Antibacterial activity (growth inhibition area around a well) ([6]; 10 μg of compound per well): 133 square millimeters
- IC50 [7]: 39.3 µM
- Antibacterial activity in the presence of rifampin (growth inhibition area around a well) ([8]; rifampin 0 μg/ml): 79 square millimeters
- Antibacterial activity in the presence of rifampin (growth inhibition area around a well) ([8]; rifampin 0.1 μg/ml): 95 square millimeters
- Antibacterial activity in the presence of rifampin (growth inhibition area around a well) ([8]; rifampin 1.0 μg/ml): 104 square millimeters
- Rise of blood urea nitrogen (BUN) versus control or low dose group ([9]; rat, in vivo, 16 mg/kg/day): 15%
- Lowest dose that negatively influenced the body weight gain ([9]; rat, in vivo, iv): 1 mg/kg per day
- Mortality ([9]; rats, 32 mg/kg per day intravenously for two weeks): 100%

Compound: octanoyl polymyxin B heptapeptide [Octanoyl PMBH, reference compound]
- Antibacterial activity (growth inhibition area around a well) ([6]; 4 μg of compound per well): 0 square millimeters
- Antibacterial activity (growth inhibition area around a well) ([6]; 10 μg of compound per well): 0 square millimeters
- Antibacterial activity in the presence of rifampin (growth inhibition area around a well) ([8]; rifampin 0 μg/ml): 0 square millimeters
- Antibacterial activity in the presence of rifampin (growth inhibition area around a well) ([8]; rifampin 0.1 μg/ml): 0 square millimeters
- Antibacterial activity in the presence of rifampin (growth inhibition area around a well) ([8]; rifampin 1.0 μg/ml): 38 square millimeters
- Concentration needed to inhibit the growth of bacteria [10]: 128 µg/mL
